Legend:
BTK = BTK (Homo sapiens (Human), UniProt Q06187); assay: Z'-LYTE kinase inhibition assay, BTK; type: biochemical; settings: compound at 0.041 μM; read-out: % inhibition against BTK
Procedure: Inhibitory activities of compounds against BTK, EGFR and EGFR mutants (EGFR L858R, EGFR T790M, EGFR L858R/T790M), FGFR1, FGFR2, JAK2, JAK3 and KDR were measured by Invitrogen using Z'-LYTE® Method as briefly described in the following.
Test Compounds are screened in 1% DMSO (final) in the well. For 10 point titrations, 3-fold serial dilutions are conducted from the starting concentration. All ATP Solutions are diluted to a 4× working concentration in Kinase Buffer (50 mM HEPES pH 7.5, 0.01% BRIJ-35, 10 mM MgCl2, 1 mM EGTA). Peptide/Kinase Mixtures are diluted to a 2× working concentration in the appropriate Kinase Buffers as described below.
(v) Peptide/Kinase Mixtures for Measurement of BTK:
The 2×BTK/Tyr 01 mixture is prepared in 50 mM HEPES pH 7.5. 0.01% BRIJ-35, 10 mM MgCl2, 1 mM EGTA.
The mixture is then incubated for another 60-minute at room temperature for development reaction. Finally fluorescence is read by plate reader.
To determine IC50 of a compound against EGFR, EGFR mutant and other kinases, a series of concentrations of the compound were tested for the inhibition. […] The scale utilized in Table 4 is as follows: +++ less than 100 nM, ++ 100-500 nM and + greater than 500 nM.

EGFR (ErbB1) T790M L858R = EGFR (ErbB1) T790M L858R (Homo sapiens (Human), UniProt P00533, L858R/T790M); assay: Z'-LYTE kinase inhibition assay, EGFR L858R/T790M; type: biochemical; settings: for inhibition at 0.0137 µM: read-out: % inhibition against EGFR L858R/T790M (Compound at 0.0137 μM); for IC50: read-out: IC50 against EGFR L858R/T790M
Chain of EGFR (ErbB1) T790M L858R (P00533 25-1210 T790M/L858R): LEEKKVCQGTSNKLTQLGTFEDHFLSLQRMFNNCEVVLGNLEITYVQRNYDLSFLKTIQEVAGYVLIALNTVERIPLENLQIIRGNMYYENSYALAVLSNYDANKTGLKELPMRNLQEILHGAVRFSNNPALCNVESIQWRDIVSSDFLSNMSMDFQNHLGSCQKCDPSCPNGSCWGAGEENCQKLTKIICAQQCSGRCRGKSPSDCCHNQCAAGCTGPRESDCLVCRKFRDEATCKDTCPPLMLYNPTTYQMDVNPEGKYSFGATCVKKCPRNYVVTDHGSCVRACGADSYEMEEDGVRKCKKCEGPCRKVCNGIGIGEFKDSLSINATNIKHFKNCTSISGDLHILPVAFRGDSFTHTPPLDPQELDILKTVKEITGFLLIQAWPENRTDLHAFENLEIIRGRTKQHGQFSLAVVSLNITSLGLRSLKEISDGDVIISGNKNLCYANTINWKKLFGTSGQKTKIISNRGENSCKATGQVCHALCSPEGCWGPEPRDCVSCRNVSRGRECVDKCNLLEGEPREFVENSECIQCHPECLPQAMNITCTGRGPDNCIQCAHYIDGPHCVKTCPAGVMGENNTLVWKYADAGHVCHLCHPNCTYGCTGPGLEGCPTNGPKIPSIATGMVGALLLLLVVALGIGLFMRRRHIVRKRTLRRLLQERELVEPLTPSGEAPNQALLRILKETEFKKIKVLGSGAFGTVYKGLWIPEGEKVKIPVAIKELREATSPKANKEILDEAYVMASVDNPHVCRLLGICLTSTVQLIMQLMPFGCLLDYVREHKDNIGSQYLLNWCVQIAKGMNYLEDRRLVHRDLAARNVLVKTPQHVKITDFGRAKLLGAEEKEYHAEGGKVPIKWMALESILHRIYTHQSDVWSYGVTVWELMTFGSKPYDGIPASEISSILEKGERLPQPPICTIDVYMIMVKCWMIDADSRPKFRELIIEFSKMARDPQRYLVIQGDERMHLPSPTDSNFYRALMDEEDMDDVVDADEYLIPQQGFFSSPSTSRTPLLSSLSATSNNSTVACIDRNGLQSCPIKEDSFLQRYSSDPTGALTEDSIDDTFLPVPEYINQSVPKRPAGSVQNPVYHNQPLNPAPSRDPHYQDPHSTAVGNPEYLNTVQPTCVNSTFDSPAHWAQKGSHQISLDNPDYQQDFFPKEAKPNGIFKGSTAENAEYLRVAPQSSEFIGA
How it was run: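 IC50 taken from 10-point, 3-fold serial dilutions tested in 1% DMSO. The mutant kinase and peptide were prepared in HEPES pH 6.5 buffer with BRIJ-35, MgCl2, EGTA and NaN3, then reacted with ATP for 1 h at room temperature. Development reagent was added for a further hour before the fluorescence readout.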

EGFR (ErbB1) = EGFR (ErbB1) (Homo sapiens (Human), UniProt P00533); assay: Z'-LYTE kinase inhibition assay, EGFR; type: biochemical; settings: for inhibition at 0.041 µM: read-out: % inhibition against EGFR (Compound at 0.041 μM)
Chain of EGFR (ErbB1) (P00533 25-1210): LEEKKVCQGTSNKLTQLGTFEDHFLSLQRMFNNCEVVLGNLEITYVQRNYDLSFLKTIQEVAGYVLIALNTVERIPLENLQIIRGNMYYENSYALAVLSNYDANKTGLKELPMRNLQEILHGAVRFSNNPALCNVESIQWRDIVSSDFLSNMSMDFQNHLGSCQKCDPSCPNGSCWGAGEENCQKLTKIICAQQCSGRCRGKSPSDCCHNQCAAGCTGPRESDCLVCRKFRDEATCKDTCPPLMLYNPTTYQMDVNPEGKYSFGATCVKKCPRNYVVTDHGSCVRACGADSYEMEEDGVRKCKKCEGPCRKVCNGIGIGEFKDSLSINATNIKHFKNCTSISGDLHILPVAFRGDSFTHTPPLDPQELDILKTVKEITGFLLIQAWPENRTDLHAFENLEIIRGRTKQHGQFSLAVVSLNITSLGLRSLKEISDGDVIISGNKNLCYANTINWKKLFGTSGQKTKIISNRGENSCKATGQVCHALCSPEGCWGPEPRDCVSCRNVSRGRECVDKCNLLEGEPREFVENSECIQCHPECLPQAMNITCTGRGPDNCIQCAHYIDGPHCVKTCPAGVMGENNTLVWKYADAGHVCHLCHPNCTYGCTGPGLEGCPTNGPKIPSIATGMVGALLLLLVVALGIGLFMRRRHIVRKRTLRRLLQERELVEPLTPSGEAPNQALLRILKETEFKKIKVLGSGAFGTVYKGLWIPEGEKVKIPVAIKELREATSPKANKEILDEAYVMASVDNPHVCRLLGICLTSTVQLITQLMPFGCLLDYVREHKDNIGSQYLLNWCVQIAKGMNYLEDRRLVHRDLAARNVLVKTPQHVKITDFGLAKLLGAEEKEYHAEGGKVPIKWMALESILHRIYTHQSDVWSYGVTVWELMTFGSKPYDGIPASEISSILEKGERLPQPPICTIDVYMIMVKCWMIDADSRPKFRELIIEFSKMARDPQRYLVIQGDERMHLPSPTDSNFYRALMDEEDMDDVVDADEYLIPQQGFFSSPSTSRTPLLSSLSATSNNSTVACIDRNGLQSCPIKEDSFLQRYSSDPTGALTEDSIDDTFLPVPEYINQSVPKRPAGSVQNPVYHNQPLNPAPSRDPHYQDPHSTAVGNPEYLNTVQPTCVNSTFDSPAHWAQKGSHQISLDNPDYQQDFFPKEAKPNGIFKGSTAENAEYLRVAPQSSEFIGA
How it was run: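 IC50 values derived from 10-point, 3-fold compound dilution series (1% DMSO final) using Z'-LYTE fluorescence readout after 60-min development. Reaction: EGFR (1.1-5.25 ng) with 2 μM peptide, 60 min at room temperature in HEPES pH 7.5 buffer containing MgCl2, MnCl2, EGTA, DTT and BRIJ-35.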

H1975 cells = assay: Inhibition of cancer cell growth, MTT assay, H1975; settings: Homo sapiens, NCI-H1975, 72 h, read-out: IC50 in H1975 cells
A431 cells = assay: cells; settings: Homo sapiens, A-431, 72 h, read-out: IC50 in A431 cells

Chain of BTK (Q06187 whole entry): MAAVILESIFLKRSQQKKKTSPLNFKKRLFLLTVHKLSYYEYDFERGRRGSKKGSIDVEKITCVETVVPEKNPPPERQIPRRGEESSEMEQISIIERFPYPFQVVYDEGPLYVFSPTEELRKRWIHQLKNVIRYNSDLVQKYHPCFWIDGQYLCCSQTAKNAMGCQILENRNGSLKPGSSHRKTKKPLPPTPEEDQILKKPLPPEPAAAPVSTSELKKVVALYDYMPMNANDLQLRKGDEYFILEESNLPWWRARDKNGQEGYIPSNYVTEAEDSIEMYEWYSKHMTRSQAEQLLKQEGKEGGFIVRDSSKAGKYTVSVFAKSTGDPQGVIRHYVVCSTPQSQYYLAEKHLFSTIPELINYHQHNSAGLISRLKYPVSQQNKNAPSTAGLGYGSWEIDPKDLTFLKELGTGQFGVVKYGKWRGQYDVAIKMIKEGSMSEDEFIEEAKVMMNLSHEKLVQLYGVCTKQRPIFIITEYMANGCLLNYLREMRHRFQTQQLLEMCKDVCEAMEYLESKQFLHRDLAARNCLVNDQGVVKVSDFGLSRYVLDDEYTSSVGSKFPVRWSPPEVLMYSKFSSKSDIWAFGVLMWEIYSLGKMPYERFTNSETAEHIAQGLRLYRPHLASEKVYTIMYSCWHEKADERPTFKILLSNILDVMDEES

Compound	inhibition at 0.041 µM (BTK) [%]	inhibition at 0.0137 µM (EGFR (ErbB1) T790M L858R) [%]	inhibition at 0.041 µM (EGFR (ErbB1)) [%]	IC50 (H1975 cells) [nM]	IC50 (EGFR (ErbB1) T790M L858R) [nM]	IC50 (A431 cells) [nM]	IC50 (EGFR (ErbB1); read-out: IC50 against EGFR) [nM]
C=CC(=O)Nc1cccc(-c2cccc3cnc(Nc4ccc(N5CCN(C)CC5)cc4)nc23)c1F [Example C045, N-(2-fluoro-3-(2-((4-(4-methylpiperazin-1-yl)phenyl)amino)quinazolin-8-yl)phenyl)acrylamide]	–	> 50	> 50	< 100	< 100	100 to 500	–
C=CC(=O)Nc1cc(-c2cccc3cnc(Nc4ccc(N5CCN(C)CC5)cc4)nc23)ccn1 [Example C057, N-(4-(2-((4-(4-methylpiperazin-1-yl)phenyl)amino)quinazolin-8-yl)pyridin-2-yl)acrylamide]	–	> 50	> 50	100 to 500	< 100	100 to 500	–
C=CC(=O)Nc1cccc(-c2cccc3cnc(Nc4ccc(N5CCN(C)CC5)cc4)nc23)c1C#N [Example C068, N-(2-cyano-3-(2-((4-(4-methylpiperazin-1-yl)phenyl)amino)quinazolin-8-yl)phenyl)acrylamide]	–	> 50	> 50	100 to 500	< 100	> 500	–
C=CC(=O)Nc1cccc(-c2cccc3cnc(Nc4ccc(N5CCN(C)CC5)c(F)c4)nc23)c1 [Example C069, N-(3-(2-((3-fluoro-4-(4-methylpiperazin-1-yl)phenyl)amino)quinazolin-8-yl)phenyl)acrylamide]	–	> 50	> 50	< 100	–	< 100	–
C=CC(=O)Nc1cccc(-c2cccc3cnc(Nc4ccc(N5CCN(C(C)=O)CC5)cc4)nc23)c1F [Example C049, N-(3-(2-((4-(4-acetylpiperazin-1-yl)phenyl)amino)quinazolin-8-yl)-2-fluorophenyl)acrylamide]	–	> 50	> 50	100 to 500	< 100	> 500	–
C=CC(=O)Nc1cccc(-c2cccc3cnc(Nc4ccc(N5CCN(CC(F)F)CC5)cc4)nc23)c1 [Example C056, N-(3-(2-((4-(4-(2,2-difluoroethyl)piperazin-1-yl)phenyl)amino)quinazolin-8-yl)phenyl)acrylamide]	–	< 50	< 50	100 to 500	–	> 500	–
CC(=O)N1CCN(c2ccc(Nc3ncc4cccc(-c5cccc(NC(=O)/C=C/CN(C)C)c5Cl)c4n3)cc2)CC1 [Example C060, (E)-N-(3-(2-((4-(4-acetylpiperazin-1-yl)phenyl)amino)quinazolin-8-yl)-2-chlorophenyl)-4-(dimethylamino)but-2-enamide]	–	> 50	< 50	100 to 500	–	> 500	–
C=CC(=O)Nc1cccc(-c2cccc3cnc(Nc4ccc(N5CCN(C)CC5)c(C#N)c4)nc23)c1 [Example C074, N-(3-(2-((3-cyano-4-(4-methylpiperazin-1-yl)phenyl)amino)quinazolin-8-yl)phenyl)acrylamide]	–	> 50	< 50	100 to 500	< 100	100 to 500	–
C=CC(=O)Nc1cccc(-c2cccc3cnc(Nc4ccc(OC5CN(CCF)C5)cc4)nc23)c1 [Example C078, N-(3-(2-((4-((1-(2-fluoroethyl)azetidin-3-yl)oxy)phenyl)amino)quinazolin-8-yl)phenyl)acrylamide]	–	> 50	> 50	< 100	< 100	> 500	–
C=CC(=O)Nc1cccc(-c2cccc3cnc(Nc4ccc(N5CCN(C)CC5)nc4)nc23)c1F [Example C048, N-(2-fluoro-3-(2-((6-(4-methylpiperazin-1-yl)pyridin-3-yl)amino)quinazolin-8-yl)phenyl)acrylamide]	–	> 50	> 50	< 100	< 100	> 500	< 100
C=CC(=O)Nc1cccc(-c2cccc3cnc(Nc4ccc(OC5CCN(C)CC5F)cc4)nc23)c1F (stereo not shown) [Example C080, N-(2-fluoro-3-(2-((4-((3-fluoro-1-methylpiperidin-4-yl)oxy)phenyl)amino)quinazolin-8-yl)phenyl)acrylamide]	–	> 50	> 50	< 100	< 100	100 to 500	–
C=CC(=O)Nc1cccc(-c2cccc3cnc(Nc4ccc(N5CCN(C)CC5)cc4Cl)nc23)c1 [Example C043, N-(3-(2-((2-chloro-4-(4-methylpiperazin-1-yl)phenyl)amino)quinazolin-8-yl)phenyl)acrylamide]	–	> 50	> 50	100 to 500	–	> 500	–
C=CC(=O)Nc1cncc(-c2cccc3cnc(Nc4ccc(N5CCN(C)CC5)nc4)nc23)c1 [Example C047, N-(5-(2-((6-(4-methylpiperazin-1-yl)pyridin-3-yl)amino)quinazolin-8-yl)pyridin-3-yl)acrylamide]	–	> 50	> 50	100 to 500	–	> 500	–

Further lines, results first:

inhibition at 0.041 µM (BTK) [%]	inhibition at 0.0137 µM (EGFR (ErbB1) T790M L858R) [%]	inhibition at 0.041 µM (EGFR (ErbB1)) [%]	IC50 (H1975 cells) [nM]	IC50 (EGFR (ErbB1) T790M L858R) [nM]	IC50 (A431 cells) [nM]	IC50 (EGFR (ErbB1); read-out: IC50 against EGFR) [nM]	Compound
> 50	< 50	< 50	< 100	–	–	–	C=CC(=O)Nc1cccc(-c2cccc3cnc(Nc4ccc(O[C@@H]5CCOC5)cc4)nc23)c1 [Example C119, (R)-N-(3-(2-((4-((tetrahydrofuran-3-yl)oxy)phenyl)amino)quinazolin-8-yl)phenyl)acrylamide]
> 50	< 50	< 50	< 100	–	–	–	C=CC(=O)Nc1cccc(-c2cccc3cnc(Nc4ccc(OC5CCN(C(C)=O)CC5)cc4)nc23)c1 [Example C125, N-(3-(2-((4-((1-acetylpiperidin-4-yl)oxy)phenyl)amino)quinazolin-8-yl)phenyl)acrylamide]
> 50	< 50	< 50	100 to 500	–	–	–	C=CC(=O)Nc1cccc(-c2cccc3cnc(Nc4ccc(N[C@@H]5CCOC5)cc4)nc23)c1 [Example C115, (R)-N-(3-(2-((4-((tetrahydrofuran-3-yl)amino)phenyl)amino)quinazolin-8-yl)phenyl)acrylamide]
> 50	< 50	< 50	< 100	–	–	–	C=CC(=O)Nc1cccc(-c2cccc3cnc(Nc4ccc(OC5CN(C(C)=O)C5)cc4)nc23)c1 [Example C122, N-(3-(2-((4-((1-acetylazetidin-3-yl)oxy)phenyl)amino)quinazolin-8-yl)phenyl)acrylamide]
–	> 50	< 50	< 100	–	< 100	–	C=CC(=O)Nc1cccc(-c2cccc3cnc(Nc4ccc(OC5CCN(CCF)CC5)cc4)nc23)c1 [Example C136, N-(3-(2-((4-((1-(2-fluoroethyl)piperidin-4-yl)oxy)phenyl)amino)quinazolin-8-yl)phenyl)acrylamide]
–	> 50	> 50	100 to 500	< 100	100 to 500	–	C=CC(=O)Nc1cccc(-c2c(F)ccc3cnc(Nc4ccc(N5CCN(C)CC5)cc4)nc23)c1 [Example C087, N-(3-(7-fluoro-2-((4-(4-methylpiperazin-1-yl)phenyl)amino)quinazolin-8-yl)phenyl)acrylamide]
–	> 50	> 50	< 100	< 100	< 100	–	C=CC(=O)Nc1cccc(-c2cccc3cnc(Nc4ccc(N[C@@H]5CCN(C)C5)cc4)nc23)c1 [Example C129, (R)-N-(3-(2-((4-((1-methylpyrrolidin-3-yl)amino)phenyl)amino)quinazolin-8-yl)phenyl)acrylamide]

Reference: US10172868B2, “Substituted quinazolines for inhibiting kinase activity” (NeuPharma, Inc., priority 2013, dated 2019)
